In the CheMixHub ionic liquid set:
± gives the uncertainty stated by the source.

Test: xn = mol fraction of the nth substance listed
Conditions: for electrical conductivity: 101 kPa; for viscosity: 100 kPa

## CCCCCCCCCCCCCCCC[n+]1ccccc1.O=C([O-])C(O)c1ccccc1 + O
293.15 K, x1 = 1.08e-06
  electrical conductivity: 0.00061 ± 0.00098 S/m
293.15 K, x1 = 1.98e-06
  electrical conductivity: 0.001 ± 0.001 S/m
293.15 K, x1 = 2.88e-06
  electrical conductivity: 0.00147 ± 0.00099 S/m
293.15 K, x1 = 3.96e-06
  electrical conductivity: 0.0019 ± 0.001 S/m
293.15 K, x1 = 4.69e-06
  electrical conductivity: 0.0023 ± 0.001 S/m
293.15 K, x1 = 5.95e-06
  electrical conductivity: 0.00281 ± 0.00098 S/m
293.15 K, x1 = 7.21e-06
  electrical conductivity: 0.00341 ± 0.00095 S/m
293.15 K, x1 = 8.83e-06
  electrical conductivity: 0.00406 ± 0.00092 S/m
293.15 K, x1 = 1.045e-05
  electrical conductivity: 0.00469 ± 0.00089 S/m
293.15 K, x1 = 1.207e-05
  electrical conductivity: 0.00516 ± 0.00088 S/m
293.15 K, x1 = 1.351e-05
  electrical conductivity: 0.00562 ± 0.00086 S/m
293.15 K, x1 = 1.478e-05
  electrical conductivity: 0.00603 ± 0.0009 S/m
293.15 K, x1 = 1.622e-05
  electrical conductivity: 0.00644 ± 0.00092 S/m
293.15 K, x1 = 1.766e-05
  electrical conductivity: 0.00687 ± 0.00093 S/m
298.15 K, x1 = 1.08e-06
  electrical conductivity: 0.00068 ± 0.0011 S/m
298.15 K, x1 = 1.98e-06
  electrical conductivity: 0.0012 ± 0.0012 S/m
298.15 K, x1 = 2.88e-06
  electrical conductivity: 0.0016 ± 0.0011 S/m
298.15 K, x1 = 3.96e-06
  electrical conductivity: 0.0022 ± 0.0011 S/m
298.15 K, x1 = 4.69e-06
  electrical conductivity: 0.0026 ± 0.0011 S/m
298.15 K, x1 = 5.95e-06
  electrical conductivity: 0.0032 ± 0.0011 S/m
298.15 K, x1 = 7.21e-06
  electrical conductivity: 0.0038 ± 0.0011 S/m
298.15 K, x1 = 8.83e-06
  electrical conductivity: 0.0046 ± 0.001 S/m
298.15 K, x1 = 1.045e-05
  electrical conductivity: 0.0053 ± 0.001 S/m
298.15 K, x1 = 1.207e-05
  electrical conductivity: 0.0058 ± 0.001 S/m
298.15 K, x1 = 1.351e-05
  electrical conductivity: 0.00631 ± 0.00097 S/m
298.15 K, x1 = 1.478e-05
  electrical conductivity: 0.0068 ± 0.001 S/m
298.15 K, x1 = 1.622e-05
  electrical conductivity: 0.0072 ± 0.001 S/m
298.15 K, x1 = 1.766e-05
  electrical conductivity: 0.0077 ± 0.001 S/m
303.15 K, x1 = 1.08e-06
  electrical conductivity: 0.00076 ± 0.0012 S/m
303.15 K, x1 = 1.98e-06
  electrical conductivity: 0.0013 ± 0.0013 S/m
303.15 K, x1 = 2.88e-06
  electrical conductivity: 0.0018 ± 0.0012 S/m
303.15 K, x1 = 3.96e-06
  electrical conductivity: 0.0024 ± 0.0013 S/m
303.15 K, x1 = 4.69e-06
  electrical conductivity: 0.0029 ± 0.0013 S/m
303.15 K, x1 = 5.95e-06
  electrical conductivity: 0.0035 ± 0.0012 S/m
303.15 K, x1 = 7.21e-06
  electrical conductivity: 0.0042 ± 0.0012 S/m
303.15 K, x1 = 8.83e-06
  electrical conductivity: 0.005 ± 0.0011 S/m
303.15 K, x1 = 1.045e-05
  electrical conductivity: 0.0058 ± 0.0011 S/m
303.15 K, x1 = 1.207e-05
  electrical conductivity: 0.0064 ± 0.0011 S/m
303.15 K, x1 = 1.351e-05
  electrical conductivity: 0.007 ± 0.0011 S/m
303.15 K, x1 = 1.478e-05
  electrical conductivity: 0.0075 ± 0.0011 S/m
303.15 K, x1 = 1.622e-05
  electrical conductivity: 0.008 ± 0.0011 S/m
303.15 K, x1 = 1.766e-05
  electrical conductivity: 0.0085 ± 0.0012 S/m
308.15 K, x1 = 1.08e-06
  electrical conductivity: 0.00083 ± 0.0013 S/m
308.15 K, x1 = 1.98e-06
  electrical conductivity: 0.0014 ± 0.0014 S/m
308.15 K, x1 = 2.88e-06
  electrical conductivity: 0.002 ± 0.0014 S/m
308.15 K, x1 = 3.96e-06
  electrical conductivity: 0.0026 ± 0.0014 S/m
308.15 K, x1 = 4.69e-06
  electrical conductivity: 0.0031 ± 0.0014 S/m
308.15 K, x1 = 5.95e-06
  electrical conductivity: 0.0038 ± 0.0013 S/m
308.15 K, x1 = 7.21e-06
  electrical conductivity: 0.0046 ± 0.0013 S/m
308.15 K, x1 = 8.83e-06
  electrical conductivity: 0.0055 ± 0.0013 S/m
308.15 K, x1 = 1.045e-05
  electrical conductivity: 0.0065 ± 0.0012 S/m
308.15 K, x1 = 1.207e-05
  electrical conductivity: 0.0071 ± 0.0012 S/m
308.15 K, x1 = 1.351e-05
  electrical conductivity: 0.0077 ± 0.0012 S/m
308.15 K, x1 = 1.478e-05
  electrical conductivity: 0.0083 ± 0.0012 S/m
308.15 K, x1 = 1.622e-05
  electrical conductivity: 0.0089 ± 0.0013 S/m
308.15 K, x1 = 1.766e-05
  electrical conductivity: 0.0094 ± 0.0013 S/m
313.15 K, x1 = 1.08e-06
  electrical conductivity: 0.0009 ± 0.0015 S/m
313.15 K, x1 = 1.98e-06
  electrical conductivity: 0.0016 ± 0.0015 S/m
313.15 K, x1 = 2.88e-06
  electrical conductivity: 0.0022 ± 0.0015 S/m
313.15 K, x1 = 3.96e-06
  electrical conductivity: 0.0029 ± 0.0015 S/m
313.15 K, x1 = 4.69e-06
  electrical conductivity: 0.0035 ± 0.0015 S/m
313.15 K, x1 = 5.95e-06
  electrical conductivity: 0.0042 ± 0.0015 S/m
313.15 K, x1 = 7.21e-06
  electrical conductivity: 0.0051 ± 0.0015 S/m
313.15 K, x1 = 8.83e-06
  electrical conductivity: 0.006 ± 0.0014 S/m
313.15 K, x1 = 1.045e-05
  electrical conductivity: 0.0071 ± 0.0014 S/m
313.15 K, x1 = 1.207e-05
  electrical conductivity: 0.0079 ± 0.0014 S/m
313.15 K, x1 = 1.351e-05
  electrical conductivity: 0.0085 ± 0.0013 S/m
313.15 K, x1 = 1.478e-05
  electrical conductivity: 0.0092 ± 0.0013 S/m
313.15 K, x1 = 1.622e-05
  electrical conductivity: 0.0098 ± 0.0014 S/m
313.15 K, x1 = 1.766e-05
  electrical conductivity: 0.0104 ± 0.0014 S/m

## C[N+](C)(C)CCO.O=C([O-])c1cccnc1 + O
293.15 K, x1 = 0.0008779
  viscosity: 1.041 ± 0.022 mPa·s
293.15 K, x1 = 0.001474
  viscosity: 1.065 ± 0.022 mPa·s
293.15 K, x1 = 0.00202
  viscosity: 1.087 ± 0.023 mPa·s
293.15 K, x1 = 0.002696
  viscosity: 1.115 ± 0.023 mPa·s
293.15 K, x1 = 0.00365
  viscosity: 1.153 ± 0.024 mPa·s
293.15 K, x1 = 0.005797
  viscosity: 1.238 ± 0.026 mPa·s
298.15 K, x1 = 0.0008779
  viscosity: 0.928 ± 0.019 mPa·s
298.15 K, x1 = 0.001474
  viscosity: 0.949 ± 0.02 mPa·s
298.15 K, x1 = 0.00202
  viscosity: 0.968 ± 0.02 mPa·s
298.15 K, x1 = 0.002696
  viscosity: 0.992 ± 0.021 mPa·s
298.15 K, x1 = 0.00365
  viscosity: 1.025 ± 0.021 mPa·s
298.15 K, x1 = 0.005797
  viscosity: 1.097 ± 0.023 mPa·s
303.15 K, x1 = 0.0008779
  viscosity: 0.833 ± 0.017 mPa·s
303.15 K, x1 = 0.001474
  viscosity: 0.852 ± 0.018 mPa·s
303.15 K, x1 = 0.00202
  viscosity: 0.869 ± 0.018 mPa·s
303.15 K, x1 = 0.002696
  viscosity: 0.889 ± 0.019 mPa·s
303.15 K, x1 = 0.00365
  viscosity: 0.918 ± 0.019 mPa·s
303.15 K, x1 = 0.005797
  viscosity: 0.98 ± 0.021 mPa·s
308.15 K, x1 = 0.0008779
  viscosity: 0.752 ± 0.016 mPa·s
308.15 K, x1 = 0.001474
  viscosity: 0.769 ± 0.016 mPa·s
308.15 K, x1 = 0.00202
  viscosity: 0.784 ± 0.016 mPa·s
308.15 K, x1 = 0.002696
  viscosity: 0.802 ± 0.017 mPa·s
308.15 K, x1 = 0.00365
  viscosity: 0.827 ± 0.017 mPa·s
308.15 K, x1 = 0.005797
  viscosity: 0.88 ± 0.018 mPa·s
313.15 K, x1 = 0.0008779
  viscosity: 0.685 ± 0.014 mPa·s
313.15 K, x1 = 0.001474
  viscosity: 0.7 ± 0.015 mPa·s
313.15 K, x1 = 0.00202
  viscosity: 0.713 ± 0.015 mPa·s
313.15 K, x1 = 0.002696
  viscosity: 0.729 ± 0.015 mPa·s
313.15 K, x1 = 0.00365
  viscosity: 0.75 ± 0.016 mPa·s
313.15 K, x1 = 0.005797
  viscosity: 0.796 ± 0.017 mPa·s
